From ChEMBL document CHEMBL3351668, “Improvement of antibacterial activity of some sulfa drugs through linkage to certain phthalazin-1(2H)-one scaffolds” (2014)
In brackets after ≈: the same amount, converted by molar mass.

Assays:
[1] = test system: Streptococcus pneumoniae; test: Antibacterial activity against Streptococcus pneumoniae RCMB 010010 at 100 umol/ml after 24 hrs by well diffusion assay; assay type: functional
[2] = test system: Staphylococcus aureus; test: Antibacterial activity against Staphylococcus aureus RCMB 010028 after 24 hrs by twofold serial dilution technique; assay type: functional; details: RCMB 010028, 24 h
[3] = test system: Enterococcus faecalis; test: Antibacterial activity against Enterococcus faecalis RCMB 010068 at 100 umol/ml after 24 hrs by well diffusion assay; assay type: functional
[4] = test system: Escherichia coli; test: Antibacterial activity against Escherichia coli RCMB 010052 at 100 umol/ml after 24 hrs by well diffusion assay; assay type: functional
[5] = test system: Salmonella typhimurium; test: Antibacterial activity against Salmonella typhimurium RCMB 010072 at 100 umol/ml after 24 hrs by well diffusion assay; assay type: functional, Salmonella enterica subsp. enterica serovar Typhimurium
[6] = test system: Escherichia coli; test: Antibacterial activity against Escherichia coli RCMB 010052 after 24 hrs by twofold serial dilution technique; assay type: functional; details: RCMB 010052, 24 h
[7] = test system: Salmonella typhimurium; test: Antibacterial activity against Salmonella typhimurium RCMB 010072 after 24 hrs by twofold serial dilution technique; assay type: functional, Salmonella enterica subsp. enterica serovar Typhimurium; details: Salmonella enterica, RCMB 010072, 24 h
[8] = test system: Staphylococcus aureus; test: Antibacterial activity against Staphylococcus aureus RCMB 010028 at 100 umol/ml after 24 hrs by well diffusion assay; assay type: functional
[9] = test system: Streptococcus pneumoniae; test: Antibacterial activity against Streptococcus pneumoniae RCMB 010010 after 24 hrs by twofold serial dilution technique; assay type: functional; details: RCMB 010010, 24 h
[10] = test system: Enterococcus faecalis; test: Antibacterial activity against Enterococcus faecalis RCMB 010068 after 24 hrs by twofold serial dilution technique; assay type: functional; details: RCMB 010068, 24 h

Row | SMILES | MIC [2] | MIC [6] | MIC [7] | MIC [9] | MIC [10] | diameter of the inhibition zone (DIZ) [1] | diameter of the inhibition zone (DIZ) [3] | diameter of the inhibition zone (DIZ) [4] | diameter of the inhibition zone (DIZ) [5] | diameter of the inhibition zone (DIZ) [8]
1 | COc1ccc(Cc2nn(CC(=O)Nc3ccc(S(N)(=O)=O)cc3)c(=O)c3ccccc23)cc1 | 0.39 mM (≈ 187 µg/mL) | 3.12 mM (≈ 1490 µg/mL) | 1.56 mM (≈ 747 µg/mL) | 6.25 mM (≈ 2990 µg/mL) | 25 mM (≈ 12000 µg/mL) | 18.2 mm | 16.2 mm | 19.6 mm | 20 mm | 22 mm
2 | COc1ccc(Cc2nn(CCC(=O)Nc3ccc(S(N)(=O)=O)cc3)c(=O)c3ccccc23)cc1 | 0.39 mM (≈ 192 µg/mL) | 3.12 mM (≈ 1540 µg/mL) | 1.56 mM (≈ 768 µg/mL) | 6.25 mM (≈ 3080 µg/mL) | 12.5 mM (≈ 6160 µg/mL) | 18.3 mm | 16.7 mm | 19.9 mm | 21 mm | 22.3 mm
3 | Nc1ccc(S(=O)(=O)Nc2nccs2)cc1 [SULFATHIAZOLE] | 50 mM (≈ 12800 µg/mL) | 100 mM (≈ 25500 µg/mL) | 12.5 mM (≈ 3190 µg/mL) | 25 mM (≈ 6380 µg/mL) | 50 mM (≈ 12800 µg/mL) | 15.8 mm | 14.9 mm | 13.8 mm | 17.2 mm | 15 mm
4 | O=C(Cn1nc(-c2ccc(Cl)cc2)c2ccccc2c1=O)Nc1ccc(S(=O)(=O)Nc2nccs2)cc1 | 3.12 mM (≈ 1720 µg/mL) | 0.39 mM (≈ 215 µg/mL) | 0.78 mM (≈ 431 µg/mL) | 1.56 mM (≈ 861 µg/mL) | 25 mM (≈ 13800 µg/mL) | 20.2 mm | 17.2 mm | 22.2 mm | 21.4 mm | 19.9 mm
5 | Nc1ccc(S(N)(=O)=O)cc1 [SULFANILAMIDE] | 12.5 mM (≈ 2150 µg/mL) | 25 mM (≈ 4310 µg/mL) | 100 mM (≈ 17200 µg/mL) | 25 mM (≈ 4310 µg/mL) | 100 mM (≈ 17200 µg/mL) | 15.8 mm | 14.2 mm | 15.8 mm | 14.2 mm | 16.8 mm
6 | COc1ccc(Cc2nn(CC(=O)Nc3ccc(S(=O)(=O)Nc4ncccn4)cc3)c(=O)c3ccccc23)cc1 | 6.25 mM (≈ 3480 µg/mL) | 25 mM (≈ 13900 µg/mL) | 3.12 mM (≈ 1740 µg/mL) | 25 mM (≈ 13900 µg/mL) | 50 mM (≈ 27800 µg/mL) | 16.3 mm | 15.2 mm | 16.9 mm | 19.3 mm | 18.6 mm
7 | O=C(Cn1nc(-c2ccccc2)c2ccccc2c1=O)Nc1ccc(S(=O)(=O)Nc2ncccn2)cc1 | 0.39 mM (≈ 200 µg/mL) | 25 mM (≈ 12800 µg/mL) | 6.25 mM (≈ 3200 µg/mL) | 0.39 mM (≈ 200 µg/mL) | 1.56 mM (≈ 800 µg/mL) | 22.3 mm | 20.3 mm | 16.1 mm | 18.2 mm | 22.3 mm
8 | NS(=O)(=O)c1ccc(NC(=O)Cn2nc(Cc3ccccc3)c3ccccc3c2=O)cc1 | 0.78 mM (≈ 350 µg/mL) | 6.25 mM (≈ 2800 µg/mL) | 3.12 mM (≈ 1400 µg/mL) | 25 mM (≈ 11200 µg/mL) | 50 mM (≈ 22400 µg/mL) | 16.2 mm | 15.3 mm | 17.6 mm | 18.24 mm | 21 mm

The remaining compounds from weak to strong by MIC [2], led by results:

Row | MIC [2] | MIC [6] | MIC [7] | MIC [9] | MIC [10] | SMILES | diameter of the inhibition zone (DIZ) [1] | diameter of the inhibition zone (DIZ) [3] | diameter of the inhibition zone (DIZ) [4] | diameter of the inhibition zone (DIZ) [5] | diameter of the inhibition zone (DIZ) [8]
9 | 12.5 mM (≈ 6470 µg/mL) | 25 mM (≈ 12900 µg/mL) | 0.78 mM (≈ 404 µg/mL) | 1.56 mM (≈ 807 µg/mL) | 25 mM (≈ 12900 µg/mL) | O=C(Cn1nc(-c2ccccc2)c2ccccc2c1=O)Nc1ccc(S(=O)(=O)Nc2nccs2)cc1 | 20.3 mm | 17 mm | 16.3 mm | 21 mm | 18.3 mm
10 | 6.25 mM (≈ 1560 µg/mL) | 100 mM (≈ 25000 µg/mL) | 50 mM (≈ 12500 µg/mL) | 100 mM (≈ 25000 µg/mL) | 100 mM (≈ 25000 µg/mL) | Nc1ccc(S(=O)(=O)Nc2ncccn2)cc1 [SULFADIAZINE] | 14.2 mm | 13.7 mm | 14.2 mm | 15 mm | 18.3 mm
11 | 3.12 mM (≈ 1780 µg/mL) | 50 mM (≈ 28500 µg/mL) | 25 mM (≈ 14300 µg/mL) | 50 mM (≈ 28500 µg/mL) | 25 mM (≈ 14300 µg/mL) | COc1ccc(Cc2nn(CCC(=O)Nc3ccc(S(=O)(=O)Nc4ncccn4)cc3)c(=O)c3ccccc23)cc1 | 15.7 mm | 17.2 mm | 16.2 mm | 17.4 mm | 19.8 mm
12 | 1.56 mM (≈ 678 µg/mL) | 12.5 mM (≈ 5430 µg/mL) | 12.5 mM (≈ 5430 µg/mL) | 12.5 mM (≈ 5430 µg/mL) | 25 mM (≈ 10900 µg/mL) | NS(=O)(=O)c1ccc(NC(=O)Cn2nc(-c3ccccc3)c3ccccc3c2=O)cc1 | 16.8 mm | 15.9 mm | 16.8 mm | 16.9 mm | 19.4 mm
